From patent US11672843B2, “Somatostatin receptor agonist formulations” (CAMURUS AB, priority 2012, dated 2023)
Structures can show the parent of a compound that is named as a salt. *1 amine or outer side, *2 acyl side, *3 side chain or, on linkers, in order; H or OH if unused. Where a SMILES comes first, the peptide text is derived from it. Side-chain parts run from the residue outwards. [ ]: non-standard residue; d: D form. The star is where a group is joined. Ethylenediamine = C(CN[*:2])N[*:1]; Hyp = O=C(O)[C@@H]1C[C@@H](O)CN1; Phg = N[C@H](C(=O)O)c1ccccc1; CO = O=C([*:1])[*:2]; Bn = c1ccc(C*)cc1

How the values were obtained:
[1] = Solubility screening of SOM230 in lipid formulations (visual inspection); format: physicochemical
Protocol: Placebo lipid mixture formulations as well as formulations of the single respective lipid alone were prepared in 1 OR vials according to Table 1. The sample size was 6 g. […] The samples were allowed to equilibrate at ambient room temperature; samples with formulation types 1-8 on end-over-end rotation and samples with formulation types 9-12 on magnetic stirring. The flow chart in FIG. 1 describes the sample preparation process. The screening covered the following formulation variables: • Lipid weight ratio (SPC/GDO weight ratio) • Co-solvent nature and concentration • Single lipid formulations • Single solvent (only PG) The samples were studied by visual inspection and the appearance was noted. […] Mixing at ambient room temperature and visual observation continued after addition of more SOM230 drug powder.

[2] = cited from earlier work
[3] = Stability comparison of SOM230 salt forms in lipid formulations, HPLC; format: physicochemical; details: storage for 2 weeks at 60° C.; ca 30 mg/mL free base
Protocol: The lipid/SOM230(Pm), lipid/SOM230(Cl) and lipid/SOM230(Ac) formulations were divided into two 2R vials which were placed at 60° C. and the remaining amount from the preparation was assayed by HPLC (time point zero).
The samples stored at 60° C. were pulled out after 2 weeks of storage for visual inspection and HPLC analysis.

[4] = system: SSTR2 and SSTR5; details: cited from earlier work
[5] = in vivo; cited from earlier work

For `NCCCC[C@@H]1NC(=O)[C@@H](Cc2c[nH]c3ccccc23)NC(=O)[C@H](c2ccccc2)NC(=O)[C@@H]2C[C@@H](OC(=O)NCCN)CN2C(=O)[C@H](Cc2ccccc2)NC(=O)[C@H](Cc2ccc(OCc3ccccc3)cc2)NC1=O` [Pasireotide] (cyclo([Hyp]([CO-Ethylenediamine])[Phg][dW]KY(Bn)F); ring closure inferred), the “Solubility of SOM230 in EtOH” value ([1]; ethanol) is listed as less than 1 wt %, the “Solubility of SOM230 in PG” value ([1]; propylene glycol only) is listed as greater than 1 wt % and the Half-life ([2]; biological half-life) is listed as 2 to 3 h. The “Initial half-life following the peak” value ([2]; human, single subcutaneous dose) was 2 to 3 h.
For Pasireotide pamoate [SOM230 pamoate], the “Stability of salt form in the lipid formulations (HPLC)” value [3] was “most stable salt form”.
In the case of `C[C@@H](O)[C@@H]1NC(=O)[C@H](CCCCN)NC(=O)[C@@H](Cc2c[nH]c3ccccc23)NC(=O)[C@H](Cc2ccccc2)NC(=O)[C@@H](NC(=O)[C@H](N)Cc2ccccc2)CSSC[C@@H](C(=O)N[C@H](CO)[C@@H](C)O)NC1=O` [Octreotide, D-Phe-Cys-Phe-D-Trp-Lys-Thr-Cys-Thr-ol (2-7 disulphide bridge)], the “Selectivity for somatostatin receptors” value [4] is listed as “high selectivity” and the Terminal half-life [5] is listed as “around 1.7 hours”.
With `NCCCC[C@@H]1NC(=O)[C@@H](Cc2c[nH]c3ccccc23)NC(=O)[C@H](c2ccccc2)NC(=O)[C@@H]2C[C@@H](OC(=O)NCCN)CN2C(=O)[C@H](Cc2ccccc2)NC(=O)[C@H](Cc2ccc(OCc3ccccc3)cc2)NC1=O` [SOM230 hydrochloride] (cyclo([Hyp]([CO-Ethylenediamine])[Phg][dW]KY(Bn)F)) the “Stability of salt form in the lipid formulations (HPLC)” value [3] was “more stable than the acetate salt but not as stable as the pamoate salt”.
